Source: patent US6395787B1, “Ocular hypotensive lipids” (Allergan Sales, Inc., priority 2000, dated 2002)

Tests used:
human FP receptor = human FP receptor (Homo sapiens, UniProt P43088); assay: Ca2+ signal in CRL 1497 cells; assay type: cell-based; parameters: endogenous in cells; host or cells: CRL 1497 human dermal fibroblasts; Δ[Ca^2+]i mean χ ± SEM: unit not given here; conditions: for Δ[Ca^2+]i mean χ ± SEM: n = 4
Experimental: Human CRL 1497 cells were plated in culture flasks and fed Dulbecco's modified Eagle's medium (DMEM) containing 10% fetal calf serum, 2 mM 1-glutamine, and 0.05 mg/ml gentacin (all purchased from Gibco, Grand Island, N.Y.). Cell cultures were maintained in a humidified atmosphere of 95% air, 5% CO2 and grown to confluency. Cells were removed from the culture flasks by approximately 1 min treatment with trypsin 0.05%/0.53 mM EDTA in Hanks Balanced Salt Solution (HBSS, Gibco, Grand Island, N.Y.) at 37° C. Proteolytic activity was arrested by adding 5 ml of 10% fetal bovine serum in DMEM. The cells were consecutively washed in Hank's BSS and medium containing 140 mM NaCl, […], 1 mM MgCl2, 1.5 mM CaCl2, 10 mM HEPES: TRIS, 5 mM glucose, 5 mM Na pyruvate, 0.1% bovine serum albumin at pH 7.4: Centrifugation for the washes was performed for 15 minutes at 200 g at room temperature. Cells were counted, resuspended in the above medium and incubated with 2×10^−6 M Fura 2/acetoxymethyl ester in a shaking water bath for 30 minutes at 37° C. The cells were subsequently washed in medium as above and resuspended at a concentration of 2×10^6 cells ml^−1. Aliquots of 0.5 ml cell suspension were then added to autocap microtubes to provide 10^6 cells per experimental determination of intracellular free Ca^2+ concentration ([Ca^2+]i).
Fluorescence was measured in a Perkin-Elmer LS-5 fluorescence spectrophotometer at excitation and emission wavelengths of 340 and 492 nm, respectively, with both slits at 10 nm. For each experimental determination 10^6 cells were washed (200×g for 5 min) and suspended in a 2 ml cuvette with buffer containing 120 mM NaCl, 6 mM KCl, 1 mM MgSO4, 1.5 mM CaCl2, 20 mM HEPES, 1 mg ml^−1 glucose and 1 mg ml^−1 Na pyruvate. Stirring was achieved by an overhead-mounted, paddle stirrer with the temperature maintained at 37° C. The cells were lysed with digitonin (10 μl of 100 mg ml^−1 DMSO) to obtain fmax. EGTA (100 mM) and sufficient 10N NaOH to adjust the pH to 8.5 were then successively added to obtain fmin.

[1] = system: dog ocular surface hyperemia; assay: Dog ocular surface hyperemia; assay type: in vivo; parameters: key: <1 trace 0.5; 1 mild 1; moderate 2; severe 3; conditions: throughout the 24 hr experimental period, trace for vehicle
Experimental: Ocular surface hyperemia was visually assessed and scored according to a system typically used clinically.
Ocular surface hyperemia was evaluated at the same time points as intraocular pressure measurement. It should be noted that untreated dog eyes frequently have a pink/red tone. Thus, values of trace or even mild are not necessarily out of the normal range.

[2] = system: feline iris sphincter smooth muscle; assay: Isolated cat iris sphincter smooth muscle contraction; conditions: for % Maximal contractile response mean χ ± SEM: reference contraction 10^−7 M PGF2α, n = 4
Experimental: Smooth muscle tension of isolated tissues was measured isometrically with force displacement transducers (Grass FT-03) and recorded on Grass Polygraphs (Models 7G and 79E). The organ baths contained Krebs solution maintained at 37° C. and gassed with 95% 02/5% CO2 to give a pH of 7.4. The Krebs solution had the following composition (mM): NaCl, 118.0; KCl, 4.7; KH2PO4, 1.2; CaCl2, 1.9; MgSO4, 1.18; NaHCO3, 25.0; glucose, 11.7; indomethacin, 0.001.
Adult domestic cats were sacrificed by intravenous overdose of sodium pentobarbital (Anthony, Arcadia, Calif.). The eyes were enucleated immediately and placed on ice. The iris sphincter muscle was mounted vertically under 50 to 100 mg tension in a jacketed 10 ml organ bath. A 60 min stabilization period was allowed before commencing each experiment. Activity was determined as contractile responses. Compounds were added cumulatively to the organ bath and at least 30 min was allowed for recovery, after complete wash-out, and return to baseline tension. […] No more than two compounds were tested in each tissue.

[3] = system: human platelets (DP-, TP- and IP-receptor types); assay: Human platelet aggregation and inhibition of ADP-induced aggregation; assay type: cell-based
Experimental: Prostanoid activity at the DP-, TP- and IP-receptor types was determined by an ability to cause aggregation (TP-receptor activity) or to inhibit ADP-induced aggregation of human platelets in vitro (DP- and IP-receptor activity). Fresh whole blood was obtained from consenting healthy human volunteers and mixed with acid citrate-dextrose (ACD). The blood was centrifuged at 1000 rpm for 15-20 minutes to obtain platelet rich plasma (PRP). 4.5 μl of prostanoid or vehicle was added to 450 μl of PRP and incubated for 2 minutes at 37° C. in a Payton aggregometer and observed for any aggregatory activity. 2×10^−5 M ADP (final concentration) was then added to induce full aggregation. Inhibition of aggregation was calculated as the percentage difference between aggregation evoked by 2×10^−5 M ADP in the absence and presence of drug. Aggregatory activity was calculated as the percent aggregation induced by the prostanoid relative to the aggregation induced by 2×10^−5 M ADP. Standard aggregatory responses to 2×10^−5 M ADP alone were performed at the beginning and end of each experiment.

human FP receptor, sequence (P43088 whole entry): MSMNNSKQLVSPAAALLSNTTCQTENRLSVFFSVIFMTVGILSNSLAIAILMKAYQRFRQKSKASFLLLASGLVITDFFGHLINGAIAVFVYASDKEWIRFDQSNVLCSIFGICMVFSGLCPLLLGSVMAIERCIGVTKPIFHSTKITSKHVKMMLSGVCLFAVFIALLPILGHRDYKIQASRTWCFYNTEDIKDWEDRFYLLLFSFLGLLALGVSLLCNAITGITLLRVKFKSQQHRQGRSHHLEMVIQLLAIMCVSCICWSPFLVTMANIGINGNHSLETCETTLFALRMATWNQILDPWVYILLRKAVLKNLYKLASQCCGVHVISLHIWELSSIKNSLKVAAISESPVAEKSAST

Δ[Ca^2+]i mean χ ± SEM (human FP receptor; 10^−5 M, CRL 1497 cells): 97.9 ± 10.8
Δ[Ca^2+]i mean χ ± SEM (human FP receptor; 10^−6 M, CRL 1497 cells): 45.8 ± 11.5
Δ[Ca^2+]i mean χ ± SEM (human FP receptor; 10^−7 M, CRL 1497 cells): 13.5 ± 3.9
Δ[Ca^2+]i mean χ ± SEM (human FP receptor; 10^−8 M, CRL 1497 cells): 3.4 ± 1.5
EC50 (human FP receptor; CRL 1497 human dermal fibroblasts, read-out: E.C.50, Ca2+ signal): 1590 nM
ocular surface hyperemia [1]: mild
EC50 ([2]; Felis catus, isolated feline iris sphincter, read-out: effective concentration (E.C.)50, contraction of cat iris sphincter smooth muscle): 58 nM
Compound: CCCCC[C@H](O)/C=C/[C@@H]1[C@@H](C/C=C\CCCC(=O)NCCO)[C@@H](O)C[C@H]1O [PGF2α 1-ethanolamide, (5Z,8α,9α,11α,13E,15S)-9,11,15-trihydroxy-N-(2-hydroxyethyL)prosta-5,13-dien-1-amide]
difference in potency at the human FP receptor vs PGF2α (human FP receptor; CRL 1497 cells, Ca2+ signal): about a one hundred fold difference in potency
% Maximal contractile response mean χ ± SEM ([2]; 10^−5 M): 126.0 ± 3.6%
% Maximal contractile response mean χ ± SEM ([2]; 10^−6 M): 119.2 ± 6.0%
% Maximal contractile response mean χ ± SEM ([2]; 10^−7 M): 77 ± 5.5%
% Maximal contractile response mean χ ± SEM ([2]; 10^−8 M): 2.7 ± 1.7%
threshold concentration ([2]; isolated feline iris sphincter contraction): ~10 nM
effect on platelets (aggregation; inhibition of ADP induced aggregation) [3]: No effect
